Measured values published in patent US20250241905A1, “3-BETA-HSD1 INHIBITORS AND COMPOSITIONS AND USES THEREOF” (The Cleveland Clinic Foundation, priority 2022, published 2025).

Biological target: human 3β-HSD1
Assay: 3β-HSD1 inhibition, colorimetric NADH detection assay
Type: biochemical
Settings: purified recombinant human 3β-HSD1, 50 μM DHEA, 2 mM NAD+, 1 hour, room temperature, duplicate 10-point CRC; read-out: IC50 (nM), in vitro NADH inhibition
Excerpt: Enzymatic turnover was quantified through NADH generation by purified, recombinant human 3β-HSD1 (expressed in Sf9 insect cells) in the presence of steroidal substrate trans-Dehydroandrosterone (DHEA) that was placed slightly above the experimentally determined Km and saturating amounts of co-factor Nicotinamide adenine dinucleotide (NAD^+). The sequence of recombinant human 3β-HSD1 used is […] […] […] […] […] […] […] (SEQ ID NO: 3). DHEA and NAD+ were enzymatically converted to androstenedione and NADH, respectively. Final NADH concentrations were spectroscopically quantified using a commercially available Amplite™ Colorimetric NADH Assay Kit which utilizes an NADH probe with an absorbance wavelength of 460 nm. Enzymatic assays with a final volume of 25 μL were ran in a 384-well, Greiner Bio-One UV-STAR® assay plate in 50 mM TRIS pH 8.0 assay buffer. […] Compound stocks at 10 mM in DMSO were serial diluted 5-fold in DMSO to generate an ECHO® compatible source plate. 125 nL of DMSO, Trilostane, or serial diluted compounds were then acoustically transferred into an empty UV-STAR® assay plate to give a final assay concentration of 0.5% v/v DMSO. The stamp volume and dilution scheme can be adjusted to accommodate compound potency. The assay can tolerate up to a 5% v/v DMSO final assay concentration. 15 μL of 1 μg purified 3β-HSD1 and 50 μM DHEA (final assay volume concentration) was dispensed per well into the stamped plate, centrifuged for 1 minute at 1000 RPM, covered, and allowed to incubate for 15 minutes at room temp. Enzymatic reactions were initiated upon the addition of 10 μL of NAD^+ diluted in assay buffer to give a final assay volume concentration of 2 mM. The assay plate was centrifuged for 1 minute at 1000 RPM, covered, and incubated at room temperature for 1 hour. 25 μL Amplite™ Colorimetric NADH Assay Kit detection solution (prepared as recommended) was added to all reaction wells, the plate centrifuged for 1 minute at 1000 RPM, covered, and incubated for 15 minutes. Final absorbance values (λ=460 nm) are spectroscopically determined on BioTek® Cytation5 or Synergy4 plate readers. […] From the background subtracted values, the non-inhibited enzyme signal (DMSO treated) was averaged from 32 control reactions. The percent inhibition value was calculated by: % inhibition=(1−((background subtracted inhibited reaction)/(background subtracted non-inhibited average)))*100. The resulting percent inhibition was then plotted in duplicate against corresponding concentration values. The resulting CRCs were fit with a four parameter, variable slope log (inhibitor) vs response equation where Y=bottomvalue+ (topvalue−bottomvalue)/(1+10^((log IC50−X)*Hillslope)) to determine the IC50 values for tested compounds.

human 3β-HSD1, sequence (P14060 2-373 limits assumed): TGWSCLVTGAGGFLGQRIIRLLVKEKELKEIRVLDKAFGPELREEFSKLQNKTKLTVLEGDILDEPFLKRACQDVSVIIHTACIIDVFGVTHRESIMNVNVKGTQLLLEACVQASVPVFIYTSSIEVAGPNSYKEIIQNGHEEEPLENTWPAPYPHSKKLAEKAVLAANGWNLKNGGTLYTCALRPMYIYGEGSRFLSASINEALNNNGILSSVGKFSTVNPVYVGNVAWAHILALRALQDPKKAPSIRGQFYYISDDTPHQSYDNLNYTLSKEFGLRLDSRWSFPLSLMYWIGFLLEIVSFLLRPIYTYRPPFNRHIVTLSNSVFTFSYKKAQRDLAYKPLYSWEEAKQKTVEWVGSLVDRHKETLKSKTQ

SMILES	IC50 [nM]
CC1(C(F)(F)F)CCc2nc(-c3cc(F)c(O)c(F)c3)ccc2C1=O (centres unmarked) [Compound 36]	59
O=C1c2ccc(-c3cc(F)c(O)c(F)c3)nc2CCC12COC2 [Compound 63]	370
CC1(C)CCc2nc(-c3ccc(O)c(F)c3)ncc2C1=O [Compound 84]	288
Cc1cc(-c2ccc3c(n2)CCC(C)(C)C3=O)cc(Cl)c1O [Compound 78]	2170
CC1(C)CCc2nc(-c3cc(F)c(O)c(Cl)c3)ccc2C1=O [Compound 54]	107
O=C1CCCc2nc(-c3c(F)c(F)c(O)c(F)c3F)ccc21 [Compound 28]	3000
CC(C)c1cc(-c2cc(F)c(O)c(F)c2)nc2c1C(=O)CCC2 [Compound 45]	8610
CC1(C)CCc2nc(-c3cc(F)c(O)cc3F)ncc2C1=O [Compound 85]	1540
COCCN1CC(C)(C)C(=O)c2ccc(-c3cc(F)c(O)c(F)c3)nc21 [Compound 83]	556
Cc1c(-c2ccc3c(n2)CCCC3=O)cc(F)c(O)c1F [Compound 27]	367
CCOC1(c2ccccc2)CCCc2nc(-c3cc(F)c(O)c(F)c3)ccc21 (centres unmarked) [Compound 90]	52
CC1(C)CCc2nc(-c3ccc(O)c(F)c3)ccc2C1(C)O (centres unmarked) [Compound 18]	504
CC1(C)CCc2nc(-c3cc(F)c(O)c(F)c3)ccc2C1(O)Cc1ccccc1 (centres unmarked) [Compound 17]	227
NC1CCCc2nc(-c3cc(F)c(O)c(F)c3)ccc21 (centres unmarked) [Compound 15]	3440
CC1(C2(O)COC2)CCc2nc(-c3cc(F)c(O)c(F)c3)ccc2C1=O (centres unmarked) [Compound 86]	1420
CCc1cc(-c2cc(F)c(O)c(F)c2)nc2c1C(=O)CCC2 [Compound 44]	1280
CC1(C)CCc2nc(-c3cc(F)c(O)c(F)c3)ccc2C1(O)c1ccccc1 (centres unmarked) [Compound 19]	314
CC1(C)CNc2nc(-c3cc(F)c(O)c(F)c3)ccc2C1=O [Compound 69]	470
CC1(C)CCc2nc(-c3ccc(O)c(C(F)(F)F)c3)ccc2C1=O [Compound 50]	1500
CC1(O)CCCc2nc(-c3cc(F)c(O)c(F)c3)ccc21 (centres unmarked) [Compound 14]	339
CC1(C)CCc2nc(-c3ccc(O)c(F)c3F)ccc2C1=O [Compound 73]	122

SMILES	IC50 [nM]
CCOC1CCCc2nc(-c3cc(F)c(O)c(F)c3)ccc21 (centres unmarked) [Compound 76]	389
O=C1CCCc2nc(-c3cnc(O)c(F)c3)ccc21 [Compound 21]	6100
COC1(c2ncco2)CCCc2nc(-c3cc(F)c(O)c(F)c3)ccc21 (centres unmarked) [Compound 95]	100
N#Cc1cc(-c2ccc3c(n2)CCCC3=O)ccc1O [Compound 3, 2-hydroxy-5-(5-oxo-5,6,7,8-tetrahydroquinolin-2-yl)benzonitrile]	651
COC1(C(C)C)CCCc2nc(-c3cc(F)c(O)c(F)c3)ccc21 (centres unmarked) [Compound 87]	45
CC1(C)CCc2nc(-c3cc(F)c(O)c(C#N)c3)ccc2C1=O [Compound 67]	1880
COC1CCCc2nc(-c3cc(F)c(O)c(F)c3)ccc21 (centres unmarked) [Compound 53]	204
Cc1cc(-c2ccc3c(n2)CCC(C)(C)C3=O)cc(F)c1O [Compound 71]	67
CCN1CC(C)(C)C(=O)c2ccc(-c3cc(F)c(O)c(F)c3)nc21 [Compound 82]	326
CC1(C)CCc2nc(-c3ccc(O)c(C#N)c3)ccc2C1=O [Compound 4, 5-(6,6-dimethyl-5-oxo-5,6,7,8-tetrahydroquinolin-2-yl)-2-hydroxybenzonitrile]	1860
CC1(C)CCc2nc(-c3cc(F)c(O)c(F)c3)ncc2C1=O [Compound 66]	414
Cc1cc(-c2ccc3c(n2)CCC(C)(C)C3=O)c(F)c(F)c1O [Compound 81]	326
COC1(C)CCCc2nc(-c3cc(F)c(O)c(F)c3)ccc21 (centres unmarked) [Compound 79]	38
CC1(C)CCc2nc(-c3ccc(O)c(F)c3)ccc2C1=O [Compound 6, 2-(3-fluoro-4-hydroxyphenyl)-6,6-dimethyl-7,8-dihydroquinolin-5(6H)-one]	51
CC1(C)CCc2nc(-c3cc(F)c(O)c(F)c3F)ccc2C1=O [Compound 80]	152
O=C1c2ccc(-c3cc(F)c(O)cc3F)nc2CCC12CC2 [Compound 61]	127
Oc1c(F)cc(-c2ccc3c(n2)CCCC3(O)c2cccnc2)cc1F (centres unmarked) [Compound 92]	68
O=C1CCCc2nc(-c3cc(F)c(O)c(Cl)c3)ccc21 [Compound 23]	49
Oc1c(F)cc(-c2ccc3c(n2)CCCC3OC2COC2)cc1F (centres unmarked) [Compound 77]	1070
Oc1c(F)cc(-c2ccc3c(n2)CCCC3O)cc1F (centres unmarked) [Compound 13]	748
CC1(C)CCc2nc(-c3cnc(O)c(F)c3)ccc2C1=O [Compound 65]	> 20000

Now from value to molecule:

IC50 [nM]	SMILES
55	C[C@@]1(Cc2ccccc2)CCc2nc(-c3cc(F)c(O)c(F)c3)ccc2C1=O [Compound 58]
90	O=C1CCCCc2nc(-c3cc(F)c(O)c(F)c3)ccc21 [Compound 32]
272	O=C1c2ccc(-c3cc(F)c(O)c(F)c3)nc2CCC1Cc1ccccn1 (centres unmarked) [Compound 38]
212	O=C1c2ccc(-c3cc(F)c(O)c(F)c3)nc2CCC1Cc1ccncc1 (centres unmarked) [Compound 40]
292	CC1(C)CCCc2nc(-c3cc(F)c(O)c(F)c3)ccc2C1=O [Compound 33]
1170	CN(C)CC1(C)CCc2nc(-c3cc(F)c(O)c(F)c3)ccc2C1=O (centres unmarked) [Compound 60]
149	O=C1c2ccc(-c3cc(F)c(O)c(F)c3)nc2CCC1F (centres unmarked) [Compound 51]
130	O=C1c2ccc(-c3cc(F)c(O)c(F)c3)nc2CCC1CC1CC1 (centres unmarked) [Compound 29]
287	CC1(C)CC(=O)c2ccc(-c3cc(F)c(O)c(F)c3)nc2C1 [Compound 42]
338	COCC1(C)CCc2nc(-c3cc(F)c(O)c(F)c3)ccc2C1=O (centres unmarked) [Compound 75]
78	C[C@]1(Cc2ccccc2)CCc2nc(-c3cc(F)c(O)c(F)c3)ccc2C1=O [Compound 57]
221	CC1(C)Cc2nc(-c3cc(F)c(O)c(F)c3)ccc2C1=O [Compound 72]
446	CC1(O)CCc2nc(-c3cc(F)c(O)c(F)c3)ccc2C1=O (centres unmarked) [Compound 34]
2840	O=C(O)CC1CCc2nc(-c3cc(F)c(O)c(F)c3)ccc2C1=O (centres unmarked) [Compound 37]
297	O=C1CCc2nc(-c3cc(F)c(O)c(F)c3)ccc21 [Compound 22]
19	O=C1c2ccc(-c3cc(F)c(O)c(F)c3)nc2CC[C@H]1Cc1ccccc1 [Compound 48]
92	CC1(C#N)CCc2nc(-c3cc(F)c(O)c(F)c3)ccc2C1=O (centres unmarked) [Compound 35]
249	O=C1c2ccc(-c3cc(F)c(O)c(F)c3)nc2CCC1Cc1cccnc1 (centres unmarked) [Compound 39]
110	CC[C@]1(C)CCc2nc(-c3cc(F)c(O)c(F)c3)ccc2C1=O [Compound 56]
177	O=C1c2ccc(-c3cc(F)c(O)c(F)c3)nc2CC[C@@H]1Cc1ccccc1 [Compound 47]
238	Oc1c(F)cc(-c2ccc3c(n2)CCCC3(O)c2ccccn2)cc1F (centres unmarked) [Compound 94]
42	CC1(F)CCc2nc(-c3cc(F)c(O)c(F)c3)ccc2C1=O (centres unmarked) [Compound 46]
188	CC1(CC(F)(F)F)CCc2nc(-c3cc(F)c(O)c(F)c3)ccc2C1=O (centres unmarked) [Compound 89]
